Experimental data as given in BindingDB's records for doi:10.7270/Q2251GJ9 (The Scripps Research Institute Molecular Screening Center, 2007).

Molecular target: Sphingosine 1-phosphate receptor 1 (Homo sapiens, UniProt P21453)
Assay: S1P1 receptor agonists, dose response, cell-based, agonist mode, 60K MLSMR set (AID 468)
Conditions: not given

Chain of Sphingosine 1-phosphate receptor 1 (P21453 whole entry): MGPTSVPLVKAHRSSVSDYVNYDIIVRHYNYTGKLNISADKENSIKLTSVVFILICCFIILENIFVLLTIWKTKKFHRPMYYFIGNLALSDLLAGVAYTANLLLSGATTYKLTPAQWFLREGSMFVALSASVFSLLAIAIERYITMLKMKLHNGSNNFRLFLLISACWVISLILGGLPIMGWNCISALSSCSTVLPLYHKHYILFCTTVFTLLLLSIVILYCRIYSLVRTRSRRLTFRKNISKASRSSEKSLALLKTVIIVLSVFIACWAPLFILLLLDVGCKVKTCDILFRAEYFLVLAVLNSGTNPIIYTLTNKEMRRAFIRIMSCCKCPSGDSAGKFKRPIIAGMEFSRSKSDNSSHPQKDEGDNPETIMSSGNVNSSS

Compared with `O=S1(=O)Nc2c(ccc3cccnc23)-c2ccccc21` [5H-quinolino[8,7-c][1,2]benzothiazine 6,6-dioxide], `O=C(C1CCCN1S(=O)(=O)c1cccc2cccnc12)N1CCN(c2ccccc2)CC1` (configuration not stated) [(4-phenyl-1-piperazinyl)-[1-(8-quinolinylsulfonyl)-2-pyrrolidinyl]methanone] is higher in EC50: 3.95 µM for the first, > 95 µM for the second. The first is the more potent here.

Compared with `COc1ccc(N2CCn3c2nc2c3c(=O)n(CCCc3ccccc3)c(=O)n2C)c(OC)c1` [6-(2,4-dimethoxyphenyl)-4-methyl-2-(3-phenylpropyl)-7,8-dihydropurin[7,8-a]imidazole-1,3-quinone], `COc1ccc(C(=O)C2C(=O)C(=O)N(CC3CCCO3)C2c2cccc(OC)c2)cc1` (configuration not stated) [(4Z)-4-[hydroxy-(4-methoxyphenyl)methylene]-5-(3-methoxyphenyl)-1-(tetrahydrofurfuryl)pyrrolidine-2,3-quinone] is higher in EC50: 5.83 µM for the first, > 95.1 µM for the second. The first is the more potent here.

`Clc1ccccc1C1=Nn2c(nnc2-c2ccncc2)SC1` [6-(2-chlorophenyl)-3-(4-pyridyl)-7H-[1,2,4]triazolo[3,4-b][1,3,4]thiadiazine] and `Cc1nnc(SC(=O)N2c3ccccc3Sc3ccccc32)s1` [10-phenothiazinecarbothioic acid S-(5-methyl-1,3,4-thiadiazol-2-yl) ester] are within 1.5-fold of each other in EC50: 3.48 µM for the first, 3.57 µM for the second.

Compared with `CCOC(=O)C1C(=O)C=C(c2ccc(OC)cc2)CC1c1ccco1` (configuration not stated) [6-(2-furanyl)-4-(4-methoxyphenyl)-2-oxo-1-cyclohex-3-enecarboxylic acid ethyl ester], `COc1ccc(-c2cn3c(C)c(C(=O)Nc4ccncc4)sc3n2)cc1` [6-(4-methoxyphenyl)-3-methyl-N-(4-pyridyl)imidazo[2,1-b]thiazole-2-carboxamide] is higher in EC50: 3.51 µM for the first, > 10 µM for the second.

First: Cc1ccc(N2C(=O)c3cccc4c(N5CCN(C)CC5)ccc(c34)C2=O)c2cccnc12 [6-(4-methyl-1-piperazinyl)-2-(8-methyl-5-quinolinyl)-1H-benzo[de]isoquinoline-1,3(2H)-dione]
Second: CCc1cc2c(N3CCN(c4ccccc4)CC3)ncnc2s1 [6-ethyl-4-(4-phenyl-1-piperazinyl)thieno[2,3-d]pyrimidine]
The EC50 of the first is higher: > 30 µM for the first, 6.61 µM for the second.

Going from `Cc1[nH]nc2c1C1(C(=O)N(Cc3ccc(Cl)cc3)c3ccccc31)C(C#N)C(=N)O2` (configuration not stated) [6-amino-1'-[(4-chlorophenyl)methyl]-3-methyl-2'-oxo-5-spiro[2H-pyrano[2,3-c]pyrazole-4,3'-indole]carbonitrile] to `OCC12C=CC(O1)c1c2c(O)n(-c2ccccc2-c2ccccc2)c1O` (configuration not stated) [7-(hydroxymethyl)-2-(2-phenylphenyl)-4,7a-dihydro-3aH-octahydro-1H-4,7-epoxyisoindole-1,3-dione], the EC50 falls from 58 µM to 5.47 µM (11-fold). The second is the more potent here.

First: c1csc(CCNc2ncnc3sc4c(c23)CCC4)c1 [7,8-dihydro-6H-cyclopenta[4,5]thieno[1,2-c]pyrimidin-1-yl-[2-(2-thienyl)ethyl]amine]
Second: COc1ccc(CCNc2c(C)c(C)nc3ncnn23)cc1 [(5,6-Dimethyl-[1,2,4]triazolo[1,5-a]pyrimidin-7-yl)-[2-(4-methoxy-phenyl)-ethyl]-amine]
The EC50 of the first is 2.5-fold lower: 1.24 µM for the first, 3.12 µM for the second. The first is the more potent here.

`CCOC(=O)c1cccc2c1-c1ccccc1C2N=O` (configuration not stated) [9-hydroximinofluorene-4-carboxylic acid ethyl ester] and `CS(=O)(=O)n1nc(OC(=O)c2cccc3ccccc23)cc1N` [(5-amino-1-methylsulfonylpyrazol-3-yl) naphthalene-1-carboxylate] are within 1.5-fold of each other in EC50: 13 µM for the first, 9.29 µM for the second.

Going from `CCCCn1ccnc1C(=O)c1cccc(S(=O)(=O)N2c3ccccc3CC2C)c1` (configuration not stated) [(1-butyl-2-imidazolyl)-[3-[(2-methyl-2,3-dihydroindol-1-yl)sulfonyl]phenyl]methanone] to `Cn1c(C(=O)N2CCCc3ccccc32)cc2sccc21` [(3,4-Dihydro-2H-quinolin-1-yl)-(4-methyl-4H-thieno[3,2-b]pyrrol-5-yl)-methanone], the EC50 falls from 9.34 µM to 1.78 µM (5.2-fold).

Going from `Cc1nc(NC(C)c2ccccc2)c2oc3ccccc3c2n1` (configuration not stated) [(2-methylbenzofuro[3,2-d]pyrimidin-4-yl)-(1-phenylethyl)amine] to `CC(C)c1cc(C(=O)N2CCN(C(c3ccccc3)c3ccccc3)CC2)no1` [(4-benzhydrylpiperazin-1-yl)-(5-propan-2-yl-1,2-oxazol-3-yl)methanone], the EC50 rises from 6.97 µM to > 10 µM. The first is the more potent here.

First: C=CCN1/C(=N/c2cccnc2)SCC1(O)c1ccc(C)cc1 (configuration not stated) [(2E)-3-allyl-4-(4-methylphenyl)-2-(pyridin-3-ylimino)-1,3-thiazolidin-4-ol]
Second: Cc1ccc(C(=O)c2cncc(Br)c2)cc1 [(5-bromanylpyridin-3-yl)-(4-methylphenyl)methanone]
The EC50 of the first is 1.6-fold lower: 6.13 µM for the first, 9.76 µM for the second.

First: OC(c1cccc(OCc2ccccc2)c1)c1nnc(-c2ccccc2)o1 (configuration not stated) [(3-benzoxyphenyl)-(5-phenyl-1,3,4-oxadiazol-2-yl)methanol]
Second: O=C(c1cc(-c2ccco2)on1)N1CCN(C(c2ccccc2)c2ccccc2)CC1 [(4-benzhydrylpiperazin-1-yl)-[5-(furan-2-yl)-1,2-oxazol-3-yl]methanone]
The EC50 of the first is 3.2-fold lower: 2.08 µM for the first, 6.75 µM for the second. The first is the more potent here.

Compared with `Nc1ccc(N2CCOCC2)c(Cl)c1` [(3-chloro-4-morpholino-phenyl)amine], `Brc1ccc2ncnc(Nc3ccc(N4CCOCC4)cc3)c2c1` [(6-bromoquinazolin-4-yl)-(4-morpholinophenyl)amine] is 6.4-fold higher in EC50: 1.18 µM for the first, 7.6 µM for the second. The first is the more potent here.

Going from `O=C(Oc1cccc(C(=O)N2CCOCC2)c1)c1ccc(Br)cc1` [(3-morpholin-4-ylcarbonylphenyl) 4-bromanylbenzoate] to `Cc1cc(C(=O)N2CCN(C(c3ccccc3)c3ccccc3)CC2)on1` [(4-benzhydrylpiperazin-1-yl)-(3-methyl-1,2-oxazol-5-yl)methanone], the EC50 falls from > 95 µM to 5.8 µM.

First: O=C(CSc1nnc(-c2cc3ccccc3cc2O)n1Cc1ccco1)c1ccc(F)cc1 [(3Z)-3-[3-[2-(4-fluorophenyl)-2-oxidanylidene-ethyl]sulfanyl-4-(furan-2-ylmethyl)-1H-1,2,4-triazol-5-ylidene]naphthalen-2-one]
Second: CCCc1cc(C(=O)N2CCN(C(c3ccccc3)c3ccccc3)CC2)no1 [(4-benzhydrylpiperazin-1-yl)-(5-propyl-1,2-oxazol-3-yl)methanone]
The EC50 of the first is 2.5-fold higher: 19.8 µM for the first, 8.01 µM for the second.

Going from `COc1cccc2sc(Nc3nc(-c4ccccn4)cs3)nc12` [(4-methoxy-1,3-benzothiazol-2-yl)-[4-(2-pyridyl)thiazol-2-yl]amine] to `CCc1c(C)nc2ncnn2c1NCCc1ccc(OC)cc1` [(6-Ethyl-5-methyl-[1,2,4]triazolo[1,5-a]pyrimidin-7-yl)-[2-(4-methoxy-phenyl)-ethyl]-amine], the EC50 rises from 2.75 µM to 8.3 µM (3-fold).

Going from `CCCc1ccc(Oc2c[nH]nc2-c2ccc(O)cc2O)cc1` [(4E)-3-hydroxy-4-[4-(4-propylphenoxy)-1,2-dihydropyrazol-3-ylidene]-1-cyclohexa-2,5-dienone] to `O=C(c1cc(-c2ccccc2)on1)N1CCN(Cc2ccc3c(c2)OCO3)CC1` [(5-phenylisoxazol-3-yl)-(4-piperonylpiperazino)methanone], the EC50 rises from 15.5 µM to > 30 µM.

`Cc1nn(C(=O)c2cccs2)c(N)c1-c1ccccc1` [(5-amino-3-methyl-4-phenyl-1-pyrazolyl)-thiophen-2-ylmethanone] and `CCC(NCc1ccc2c(c1)OCO2)=C1C(=O)NC(=O)N(C2CCCCC2)C1=O` [(5E)-5-[1-(1,3-benzodioxol-5-ylmethylamino)propylidene]-1-cyclohexyl-1,3-diazinane-2,4,6-trione] are within 1.5-fold of each other in EC50: 7.24 µM for the first, 6.81 µM for the second.

Same assay, conditions: inactive by the depositor's call

Going from `O=c1oc2cc(Br)ccc2n1CSC1=NCCS1` [6-Bromo-3-(4,5-dihydro-thiazol-2-ylsulfanylmethyl)-3H-benzooxazol-2-one] to `CC(C)Cn1c(N)c(C(=O)CSc2ccc3c(c2)OCCO3)c(=O)n(C)c1=O` [6-amino-5-[2-(2,3-dihydro-1,4-benzodioxin-6-ylsulfanyl)acetyl]-3-methyl-1-(2-methylpropyl)pyrimidine-2,4-dione], the EC50 rises from 12.9 µM to 24 µM (1.9-fold).

`COc1cccc(-c2nnc3sc(C4CCCCC4)nn23)c1` [6-cyclohexyl-3-(3-methoxyphenyl)-[1,2,4]triazolo[3,4-b][1,3,4]thiadiazole] and `COc1ccc(CNc2cc(C)nc3ncnn23)c(OC)c1` [(2,4-Dimethoxy-benzyl)-(5-methyl-[1,2,4]triazolo[1,5-a]pyrimidin-7-yl)-amine] are within 1.5-fold of each other in EC50: 17.4 µM for the first, 16.3 µM for the second.

`COc1ccc2ncn(-c3ccccc3)c2c1` [6-methoxy-1-phenyl-1H-1,3-benzodiazole] and `CCOc1ccccc1COC(=O)c1cccc(-n2cnnn2)c1` [(2-ethoxyphenyl)methyl 3-(1,2,3,4-tetrazol-1-yl)benzoate] are within 1.5-fold of each other in EC50: 16.1 µM for the first, 22.9 µM for the second.

First: Cc1cc(N2CCN(C(c3ccccc3)c3ccccc3)CC2)n2ncnc2n1 [7-(4-benzhydrylpiperazin-1-yl)-5-methyl-[1,2,4]triazolo[1,5-a]pyrimidine]
Second: Cc1cc(C(=O)N2CCN(C(c3ccccc3)c3ccccc3)CC2)no1 [(4-benzhydrylpiperazin-1-yl)-(5-methyl-1,2-oxazol-3-yl)methanone]
The EC50 of the first is 1.8-fold lower: 14.5 µM for the first, 25.5 µM for the second. The first is the more potent here.

First: CCNc1nc2c(c(=O)n(C)c(=O)n2C)n1Cc1ccc(Cl)cc1 [7-(4-chlorobenzyl)-8-(ethylamino)-1,3-dimethyl-xanthine]
Second: CCCn1c(CN2CCN(c3cccc(Cl)c3)CC2)nc2c1c(=O)n(C)c(=O)n2C [8-[[4-(3-chlorophenyl)-1-piperazinyl]methyl]-1,3-dimethyl-7-propylpurine-2,6-dione]
The EC50 of the first is 1.6-fold lower: 12.9 µM for the first, 20.3 µM for the second. The first is the more potent here.

`CCCc1cc2c(=O)c(-c3ccccn3)coc2cc1OC` [7-methoxy-6-propyl-3-(2-pyridinyl)-1-benzopyran-4-one] and `CCN(CC)C(=O)Oc1ccc2c(=O)c(-c3ccccc3)coc2c1` [(4-oxidanylidene-3-phenyl-chromen-7-yl) N,N-diethylcarbamate] are within 1.5-fold of each other in EC50: 51.8 µM for the first, 37.2 µM for the second.

`CC1=CC(C)(C)Nc2ccc(OC(=O)c3cccnc3)cc21` [(2,2,4-trimethyl-1H-quinolin-6-yl) pyridine-3-carboxylate] and `CC1CC(C)(C)Nc2ccc(OC(=O)c3ccco3)cc21` (configuration not stated) [(2,2,4-trimethyl-3,4-dihydro-1H-quinolin-6-yl) furan-2-carboxylate] are within 1.5-fold of each other in EC50: 11.4 µM for the first, 13.6 µM for the second.

`CCCn1c(CNc2ccc(Br)cc2)nc2ccccc21` [(4-bromophenyl)-[(1-propylbenzimidazol-2-yl)methyl]amine] and `Cn1cccc1C(=O)OCc1cc(Cl)cc2c1OCOC2` [(6-chloranyl-4H-1,3-benzodioxin-8-yl)methyl 1-methylpyrrole-2-carboxylate] are within 1.5-fold of each other in EC50: 12.1 µM for the first, 15.6 µM for the second.
